Laboratory results from ChEMBL document CHEMBL1136837, “Unified QSAR approach to antimicrobials. 4. Multi-target QSAR modeling and comparative multi-distance study of the giant components of antiviral drug-drug complex networks” (Bioorg Med Chem, 2009).

Columns and labels:
Hepatitis B virus = experiment: Antiviral activity against Hepatitis B virus; type: functional, organism-based
[1] = tested on: unidentified influenza virus; experiment: Antiviral activity against influenza virus; type: functional, organism-based
Human betaherpesvirus 5 = experiment: Antiviral activity against Human cytomegalovirus; type: functional, organism-based; conditions: Human betaherpesvirus 5
Human alphaherpesvirus 3 = experiment: Antiviral activity against Varicella zoster virus; type: functional, organism-based
Human alphaherpesvirus 2 = experiment: Antiviral activity against Herpes simplex virus 2; type: functional, organism-based; conditions: Human alphaherpesvirus 2
Human alphaherpesvirus 1 = experiment: Antiviral activity against Herpes simplex virus 1; type: functional, organism-based; conditions: Human alphaherpesvirus 1
Vaccinia virus = experiment: Antiviral activity against Vaccinia virus; type: functional, organism-based, Orthopoxvirus vaccinia; conditions: Orthopoxvirus vaccinia
[2] = tested on: Human immunodeficiency virus 1; experiment: Antiviral activity against HIV1; type: functional, organism-based
Hepatitis C virus = experiment: Antiviral activity against Hepatitis C virus; type: functional, organism-based, Hepacivirus hominis; conditions: Hepatitis C virus

SMILES: CCCOc1ccc(Sc2nc(N)nc3c2ncn3CCOCP(=O)(OCC(F)(F)F)OCC(F)(F)F)cc1
- IC50 (Hepatitis B virus): 0.87 µM

SMILES: CCCCOc1ccc(Sc2nc(N)nc3c2ncn3CCOCP(=O)(OCC(F)(F)F)OCC(F)(F)F)cc1
- IC50 (Hepatitis B virus): 1 µM

SMILES: O=C1Cc2ccccc2CN1O
- IC50 [1]: 100 µM

SMILES: Cc1nn([C@H]2C[C@H](O)[C@@H](CO)S2)c(=O)nc1O
- IC50 (Human betaherpesvirus 5): 200 µM
- IC50 (Human alphaherpesvirus 3): 5 µM
- IC50 (Human alphaherpesvirus 2): 3300 nM
- IC50 (Human alphaherpesvirus 1): 18 µM
- IC50 (Vaccinia virus): 2200 nM

SMILES: O=c1[nH]c(=O)n([C@H]2C[C@H](O)[C@@H](CO)O2)cc1/C=C/Br [BRIVUDINE]
- IC50 (Human betaherpesvirus 5): 150 µM
- IC50 (Human alphaherpesvirus 3): 29 µM
- IC50 (Human alphaherpesvirus 2): 76 nM
- IC50 (Human alphaherpesvirus 1): 48 µM
- IC50 (Vaccinia virus): 400000 nM

SMILES: CC(=O)c1c(O)n(O)c2cc(NC(=O)Nc3cccc(C(=O)O)c3)ccc12
- IC50 [1]: 14 µM

SMILES: CCC(=O)c1c(O)n(O)c2cc(NC(=O)Nc3ccc(Cl)cc3)ccc12
- IC50 [1]: 38 µM

SMILES: CC(C)c1ccc(Sc2nc(N)nc3c2ncn3CCOCP(=O)(OCC(F)(F)F)OCC(F)(F)F)cc1
- IC50 (Hepatitis B virus): 0.98 µM

SMILES: CC(=O)OC[C@H]1S[C@@H](n2nc(C)c(=S)[nH]c2=O)C[C@@H]1OC(C)=O
- IC50 (Human alphaherpesvirus 2): 8000 nM
- IC50 (Human alphaherpesvirus 1): 8 µM

SMILES: O=C(O)/C=C/C(=O)c1ccccc1
- IC50 [1]: 500 µM

SMILES: Cc1cn(/C=C2/CC2(CO)CO)c(=O)[nH]c1=O
- IC50 (Human betaherpesvirus 5): 420 µM
- IC50 (Human alphaherpesvirus 3): 420 µM
- IC50 (Human alphaherpesvirus 2): 420000 nM
- IC50 (Human alphaherpesvirus 1): 420 µM

SMILES: Nc1nc(O)c2ncn(CCC(CO)CO)c2n1 [PENCICLOVIR]
- IC50 (Hepatitis B virus): 103 µM

SMILES: O=C1Cc2ccccc2C(=O)N1O
- IC50 [1]: 710 µM

SMILES: CCC(=O)c1c(O)n(O)c2cc(NC(=O)Nc3ccccc3Cl)ccc12
- IC50 [1]: 50 µM

SMILES: O=c1[nH]c(=O)n([C@H]2C[C@H](O)[C@]3(CO)C[C@H]23)cc1I
- IC50 (Human alphaherpesvirus 2): 9060 nM
- IC50 (Human alphaherpesvirus 1): 275 µM

SMILES: CC(C)CC1=N/C(=C\c2ccc(F)cc2)C(=O)NC1=O
- IC50 [1]: 365 µM

SMILES: O=C1c2ccccc2C(=O)N1O
- IC50 [1]: 500 µM

SMILES: CC(C)OC(=O)OCOP(=O)(CO[C@H](C)Cn1cnc2c(N)ncnc21)OCOC(=O)OC(C)C [TENOFOVIR DISOPROXIL]
- IC50 (Vaccinia virus): 157000 nM

SMILES: Nc1nc(N)c(Br)c(OCCOCP(=O)(O)O)n1
- IC50 (Human betaherpesvirus 5): 0.00015 µM
- IC50 (Human alphaherpesvirus 3): 0.00015 µM
- IC50 (Human alphaherpesvirus 2): 0.7 nM
- IC50 (Vaccinia virus): 0.7 nM

SMILES: CC(C)OP(=O)(COCCOc1cc(N)ncn1)OC(C)C
- IC50 (Human alphaherpesvirus 3): 0.00015 µM
- IC50 (Human alphaherpesvirus 2): 1.2 nM
- IC50 (Human alphaherpesvirus 1): 0.0012 µM
- IC50 [2]: 6.01 µM

SMILES: CCCCCCCCCCCCCCCCCCOCCOP1(=O)CO[C@@H](Cn2ccc(N)nc2=O)CO1 (some centres not stated)
- IC50 (Vaccinia virus): 580 nM

SMILES: CCc1nn([C@H]2C[C@H](O)[C@@H](CO)S2)c(=O)nc1O
- IC50 (Human betaherpesvirus 5): 40 µM
- IC50 (Human alphaherpesvirus 3): 40 µM
- IC50 (Human alphaherpesvirus 2): 200000 nM
- IC50 (Human alphaherpesvirus 1): 120 µM
- IC50 (Vaccinia virus): 200000 nM

SMILES: Nc1cc(OC[C@H](CO)OCP(=O)(O)O)nc(N)n1
- IC50 (Human alphaherpesvirus 2): 0.017 nM
- IC50 (Human alphaherpesvirus 1): 4.8e-06 µM
- IC50 (Vaccinia virus): 0.0065 nM

SMILES: O=C(O)C(=O)CCc1ccccc1
- IC50 [1]: 500 µM
- IC50 (Hepatitis C virus): 50 µM

SMILES: O=C(Nc1ccc2c(C(=O)c3ccccc3)c(O)n(O)c2c1)NC1CCCCC1
- IC50 [1]: 50 µM

SMILES: O=C(Nc1cccc(C(=O)O)c1)Nc1ccc2c(C(=O)c3ccccc3)c(O)n(O)c2c1
- IC50 [1]: 3 µM

SMILES: O=C(Nc1ccccc1)Nc1ccc2c(C(=O)c3ccccc3)c(O)n(O)c2c1
- IC50 [1]: 29 µM

SMILES: Nc1ncnc2c1ncn2/C=C1\CC1(F)CO (configuration not stated)
- IC50 (Human alphaherpesvirus 3): 83.4 µM
- IC50 (Hepatitis B virus): 15 µM

SMILES: Nc1ccn(C[C@@H](CO)OCP(=O)(O)O)c(=O)n1 (stereo in doubt; form 2) [CIDOFOVIR]
- IC50 (Vaccinia virus): 32000 nM

SMILES: O=C(Nc1ccc2c(c1)N(O)C(=O)/C2=C(\O)c1ccccc1)c1ccc(NS(=O)(=O)c2cccs2)cc1
- IC50 [1]: 48 µM

SMILES: CC(=O)c1c(O)n(O)c2cc(NC(=O)c3ccc4ccccc4c3)ccc12
- IC50 [1]: 9 µM

SMILES: CC(=O)Nc1nc(C)c(S(=O)(=O)Nc2ccc(C(=O)Nc3ccc4c(c3)N(O)C(=O)/C4=C(\O)c3ccccc3)cc2)s1
- IC50 [1]: 32 µM

SMILES: Cc1ccccc1Sc1nc(N)nc2c1ncn2CCOCP(=O)(OCC(F)(F)F)OCC(F)(F)F
- IC50 (Hepatitis B virus): 0.08 µM

SMILES: NN1C(=O)Cc2ccccc2C1=O
- IC50 [1]: 800 µM

SMILES: Nc1nc2c(ncn2/C=C2/CC2(F)CO)c(=O)[nH]1 (configuration not stated)
- IC50 (Human alphaherpesvirus 3): 79.6 µM
- IC50 (Hepatitis B virus): 20 µM
- IC50 [2]: 100 µM

SMILES: Nc1ccn([C@@H]2CS[C@H](COP(=O)(O)OP(=O)(O)OP(=O)(O)O)O2)c(=O)n1 [LAMIVUDINE TRIPHOSPHATE]
- IC50 (Hepatitis B virus): 0.0075 µM

SMILES: O=C(O)/C(O)=C/C(=O)c1ccc(C2CCCCC2)cc1
- IC50 [1]: 5 µM

SMILES: Cc1cn([C@H]2C[C@H](O)[C@]3(CO)C[C@H]23)c(=O)[nH]c1=O [(NORTH)-METHANOCARBATHYMIDINE]
- IC50 (Human alphaherpesvirus 1): 0.12 µM

SMILES: O=C(N/C(C(=O)N1CCCCC1)=C(/Cl)c1ccccc1)c1ccccc1
- IC50 (Hepatitis B virus): 21.4 µM

SMILES: Nc1ncnc2c1ncn2/C=C1/CC1(F)CO (configuration not stated)
- IC50 (Human alphaherpesvirus 3): 14 µM
- IC50 (Hepatitis B virus): 20 µM
- IC50 [2]: 12 µM

SMILES: COc1ccccc1/C(Br)=C(\NC(=O)c1ccc([N+](=O)[O-])cc1)C(=O)N1CCCCC1
- IC50 (Hepatitis B virus): 2.4 µM

SMILES: CCOC(=O)Cc1c(N)nc(N)n(CCOCP(=O)(O)O)c1=O
- IC50 (Human betaherpesvirus 5): 0.00015 µM
- IC50 (Human alphaherpesvirus 3): 0.00015 µM
- IC50 (Human alphaherpesvirus 2): 1.2 nM
- IC50 (Human alphaherpesvirus 1): 0.0012 µM
- IC50 (Vaccinia virus): 1.2 nM
- IC50 [2]: 0.0003 µM

SMILES: Nc1nc(N)c(Cl)c(OCCOCP(=O)(O)O)n1
- IC50 (Human alphaherpesvirus 2): 1.2 nM
- IC50 (Vaccinia virus): 1.2 nM

SMILES: COc1ccccc1Sc1nc(N)nc2c1ncn2CCOCP(=O)(OCC(F)(F)F)OCC(F)(F)F
- IC50 (Hepatitis B virus): 0.08 µM

SMILES: CC(C)COc1ccc(Sc2nc(N)nc3c2ncn3CCOCP(=O)(OCC(F)(F)F)OCC(F)(F)F)cc1
- IC50 (Hepatitis B virus): 0.84 µM
